In brackets after ≈: the same amount, converted by molar mass.
Legend:
cervical cancer HeLa = experiment: MTT assay, HeLa cells; format: cell-based, human
Method: The human gastric adenocarcinoma AGS, cervical cancer HeLa, and acute promyelocytic leukemia HL-60 cells were obtained from the American Type Culture Collection (ATCC, Manassas, VA, USA). Human neonatal fibroblasts were obtained from LGC Standards (Luckenwalde, Germany). The HeLa and AGS lines were cultured in Dulbecco’s modified Eagle’s medium (DMEM) and DMEM/F12 medium, respectively. The HL-60 line was maintained in RPMI-1640 medium. Fibroblasts were cultured in Fibroblast Growth Medium with Supplement Mix. All the media were supplemented with 100 units/mL of penicillin, 100 µg/mL of streptomycin, and 10% (v/v) fetal bovine serum (FBS) (Merck Millipore, Burlington, MA, USA). The cells were incubated at 37 °C and 5% CO2.
To estimate the cytotoxic effect of the five compounds (4–8), MTT (3-(4,5-dimethylthiazol-2-yl)-2,5-diphenyltetrazolium bromide) assay was used. Oxaliplatin was used as a positive control in this test. All the cell lines were seeded in 96-well plates at a density of 5 × 10^3 cells/well and treated for 24 h with the compounds at concentrations of 0.5–40 µg/mL. Oxaliplatin was tested in the range of 20–400 µg/mL (50–1000 µM). After treatment, the cells were incubated with MTT (0.5 mg/mL; Merck Millipore, Burlington, MA, USA) for 3 h. Then, DMSO was used to dissolve formazan crystals, and the absorbance of the formazan solution was measured with a plate reader (Epoch, BioTek Instruments, Santa Clara, CA, USA). All the results (±standard deviation (SD)) were obtained from six repetitions in at least two independent experiments. The data are expressed as IC50 values (µg/mL).

AGS cells = experiment: MitoPotential assay (mitochondrial membrane depolarization); format: cell-based, human; conditions: 10 µg/mL, 5 h
Method: The AGS cells were seeded in a 12-well plate (1 × 10^5 cells/well) and incubated with compound 5 at concentrations of 1, 5, and 10 µg/mL; oxaliplatin at the concentration of 40 µg/mL; and DMSO (0.2%, v/v). After 5 h of exposure, the cells were stained with the Muse MitoPotential Assay Kit (Merck Millipore, Burlington, MA, USA) and analyzed with the Muse Cell Analyzer (Merck Millipore, Burlington, MA, USA). The percentage of depolarized live and dead cells was estimated in the experiments, which were independently repeated three times.

caspase-8 = experiment: Caspase-Glo 8 activity assay in AGS cells; format: cell-based, human; conditions: 24 h, relative to DMSO control
Method: (§1) The AGS cells were seeded in a 96-well plate (5 × 10^3 cells/well) and treated with compound 5 at concentrations of 1, 5, 7, and 10 µg/mL for 24 h; oxaliplatin at the concentration of 20 µg/mL; and DMSO (1%, v/v). The cells were then treated with reagents from Caspase-Glo 8 Assay or Caspase-Glo 9 Assay (Promega, Madison, WI, USA) and measured with the luminometer Glomax Multi + Detection System (Promega, Madison, WI, USA). The experiments were performed in two independent repeats in three repetitions.

caspase-9 = experiment: Caspase-Glo 9 activity assay in AGS cells; format: cell-based, human; conditions: 24 h, relative to DMSO control
Method: as §1

[1] = DPPH radical scavenging assay; conditions: concentration of 800 µg/mL
Method: The DPPH radical scavenging assay of samples (ligands or complexes) was performed with ascorbic acid as a standard. Different concentrations of chalcone derivatives, dissolved in DMSO, were mixed with the same amount of 0.06 mM DPPH methanolic solution and incubated at room temperature in the dark for 30 min. The absorbance was analyzed at λ = 517 nm using a 96-well microplate reader (Epoch, BioTek System, Winooski, VT, USA). The control was composed of DPPH and DMSO. DPPH inhibition was calculated according to the following Formula (2):DPPH Inhibition (%) = [(Acontrol − Asample)/Acontrol] × 100%(2)

[2] = tested on: Bacillus cereus PCM 1948,2019 (ATCC11778); experiment: MIC determination; format: cell-based; conditions: 37 °C, 48 h
Method: (§2) The MIC determinations for Staphylococcus epidermidis ATCC14990, Staphylococcus aureus ATCC6538, Enterococcus faecalis ATCC51299, Klebsiella pneumoniae ATCC13883, Escherichia coli ATCC8739, Salmonella enterica ATCC13076, Helicobacter pylori ATCC43504, Campylobacter jejuni ZMF, Campylobacter coli ZMF, Bacillus cereus PCM 1948,2019 (ATCC11778), and Listeria monocytogenes PCM2191 were performed based on the methodology described by Krauze-Baranowska et al.. The procedure for H. pylori was used in the experiments with Campylobacter strains, and the procedure for B. subtilis was used in the experiments with L. monocytogenes and B. cereus. The tested samples were dissolved in DMSO and diluted with water (concentration of approximately 500 μg/mL). The solutions were diluted geometrically by transferring the mixture/dilution (100 μL) from the first to the twelfth well of the microtiter plate. The final concentrations of samples used for antimicrobial effects ranged from 500 to 0.006 µg/mL. Ampicillin was used as a reference compound in the concentration range of 128 to 0.0625 µg/mL. The tests were incubated at 37 °C for 48 h. The diluent concentration had no effect on the activity of the tested compounds. All experiments were performed in triplicate.

Campylobacter coli ZMF = experiment: MIC determination; format: cell-based; conditions: 37 °C, 48 h
Method: as §2

Campylobacter jejuni ZMF = experiment: MIC determination; format: cell-based; conditions: 37 °C, 48 h
Method: as §2

[3] = tested on: Enterococcus faecalis ATCC51299; experiment: MIC determination; format: cell-based; conditions: 37 °C, 48 h
Method: as §2

[4] = tested on: Escherichia coli ATCC8739; experiment: MIC determination; format: cell-based; conditions: 37 °C, 48 h
Method: as §2

[5] = tested on: Helicobacter pylori ATCC43504; experiment: MIC determination; format: cell-based; conditions: 37 °C, 48 h
Method: as §2

[6] = tested on: Klebsiella pneumoniae ATCC13883; experiment: MIC determination; format: cell-based; conditions: 37 °C, 48 h
Method: as §2

[7] = tested on: Listeria monocytogenes PCM2191; experiment: MIC determination; format: cell-based; conditions: 37 °C, 48 h
Method: as §2

[8] = tested on: Salmonella enterica ATCC13076; experiment: MIC determination; format: cell-based; conditions: 37 °C, 48 h
Method: as §2

[9] = tested on: Staphylococcus aureus ATCC6538; experiment: MIC determination; format: cell-based; conditions: 37 °C, 48 h
Method: as §2

[10] = tested on: Staphylococcus epidermidis ATCC14990; experiment: MIC determination; format: cell-based; conditions: 37 °C, 48 h
Method: as §2

Question: For `Cc1cc(S(=O)(=O)Nc2ccc(C(=O)/C=C/c3ccc(Br)cc3)cc2)c(Cl)cc1Cl` [Compound 5, (E)-N-{4-[3-(4-Bromophenyl)acryloyl]phenyl}-2,4-Dichloro-5-Methylbenzenesulfonamide], which IC50 (cervical cancer HeLa; Homo sapiens, HeLa, MTT, 24 h treatment) is on record?
Answer: Its IC50 is 5.67 ± 0.35 µg/mL (≈ 10.8 µM).

Question: And the “selectivity index HeLa” value (cervical cancer HeLa; SI = IC50 noncancer cells/IC50 cancer cells, in relation to human neonatal fibroblasts)?
Answer: The value was 4.51.

Question: What about the depolarized/dead cells (AGS cells) of the same compound?
Answer: The depolarized/dead cells was 32.71% ± 3.50%.

Question: And the depolarized/live cells (AGS cells)?
Answer: The depolarized/live cells was 34.20% ± 2.57%.

Question: And the caspase-8 relative activity (caspase-8; 1 µg/mL)?
Answer: Its caspase-8 relative activity is 1.16 ± 0.15.

Question: What about the caspase-8 relative activity (caspase-8; 5 µg/mL) of the same compound?
Answer: Its caspase-8 relative activity is 3.53 ± 0.33.

Question: And the caspase-8 relative activity (caspase-8; 7 µg/mL)?
Answer: Its caspase-8 relative activity is 3.39 ± 0.28.

Question: And the caspase-8 relative activity (caspase-8; 10 µg/mL)?
Answer: Its caspase-8 relative activity is 2.99 ± 0.20.

Question: What about the caspase-9 relative activity (caspase-9; 1 µg/mL) of the same compound?
Answer: The caspase-9 relative activity was 0.85 ± 0.03.

Question: And the caspase-9 relative activity (caspase-9; 5 µg/mL)?
Answer: The caspase-9 relative activity was 4.54 ± 0.20.

Question: What about the caspase-9 relative activity (caspase-9; 7 µg/mL) of the same compound?
Answer: Its caspase-9 relative activity is 4.50 ± 0.14.

Question: What about the caspase-9 relative activity (caspase-9; 10 µg/mL) of the same compound?
Answer: The caspase-9 relative activity was 3.81 ± 0.32.

Question: And the “% of DPPH radical inhibition” value [1]?
Answer: Its value is 30.18 ± 0.23%.

Question: And the MIC [2]?
Answer: Its MIC is over 500 µg/mL.

Question: What about the MIC (Campylobacter coli ZMF) of the same compound?
Answer: The MIC was over 500 µg/mL.

Question: What about the MIC (Campylobacter jejuni ZMF) of the same compound?
Answer: Its MIC is over 500 µg/mL.

Question: And the MIC [3]?
Answer: The MIC was over 500 µg/mL.

Question: What about the MIC [4] of the same compound?
Answer: The MIC was over 500 µg/mL.

Question: What about the MIC [5] of the same compound?
Answer: Its MIC is over 500 µg/mL.

Question: What about the MIC [6] of the same compound?
Answer: The MIC was over 500 µg/mL.

Question: What about the MIC [7] of the same compound?
Answer: Its MIC is over 500 µg/mL.

Question: And the MIC [8]?
Answer: The MIC was over 500 µg/mL.

Question: What about the MIC [9] of the same compound?
Answer: The MIC was over 500 µg/mL.

Question: And the MIC [10]?
Answer: Its MIC is over 500 µg/mL.

Source: paper PMC10778824, “New Chalcone Derivatives Containing 2,4-Dichlorobenzenesulfonamide Moiety with Anticancer and Antioxidant Properties” (International Journal of Molecular Sciences, 2023)
